In ChEMBL document CHEMBL1138218, “Structure-activity relationship studies of ethyl 2-amino-6-bromo-4-(1-cyano-2-ethoxy-2-oxoethyl)-4H-chromene-3-carboxylate (HA 14-1), an antagonist for antiapoptotic Bcl-2 proteins to overcome drug resistance in cancer” (J Med Chem, 2006):

Tests used:
[1] = biological target: T1, Apoptosis regulator Bcl-2 (Homo sapiens, UniProt P10415); test: Binding affinity to Bcl2 by FP assay
Jurkat = test: Growth inhibition of Jurkat cell; assay type: functional; conditions: Homo sapiens
Bcl-2-like protein 1 [2] = biological target: T2, Bcl-2-like protein 1 (Homo sapiens, UniProt Q07817); test: Binding affinity to BclXL by FP assay
[3] = Ratio of GI50 for Jurkat cells overexpressing Bcl2 or BclXL to normal Jurkat cells; assay type: functional, Homo sapiens
Bcl-2-like protein 1 [4] = biological target: T2, Bcl-2-like protein 1; test: Growth inhibition of Jurkat cell overexpressing BclXL; assay type: functional, cell-based
Bcl-2-like protein 2 = biological target: T3, Bcl-2-like protein 2 (Homo sapiens, UniProt Q92843); test: Binding affinity to Bclw by FP assay
T3 sequence (Q92843 whole entry): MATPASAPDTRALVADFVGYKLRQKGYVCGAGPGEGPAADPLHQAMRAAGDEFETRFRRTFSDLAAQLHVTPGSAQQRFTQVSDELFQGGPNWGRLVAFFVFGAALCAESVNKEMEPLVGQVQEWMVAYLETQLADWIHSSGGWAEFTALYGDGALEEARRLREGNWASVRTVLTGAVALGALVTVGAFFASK

[5] = biological target: T1, Apoptosis regulator Bcl-2; test: Growth inhibition of Jurkat cell overexpressing Bcl2; assay type: functional, cell-based
NCI-H460 = test: Growth inhibition of NCI-H460 cell; assay type: functional; conditions: Homo sapiens

T1 sequence (P10415 whole entry): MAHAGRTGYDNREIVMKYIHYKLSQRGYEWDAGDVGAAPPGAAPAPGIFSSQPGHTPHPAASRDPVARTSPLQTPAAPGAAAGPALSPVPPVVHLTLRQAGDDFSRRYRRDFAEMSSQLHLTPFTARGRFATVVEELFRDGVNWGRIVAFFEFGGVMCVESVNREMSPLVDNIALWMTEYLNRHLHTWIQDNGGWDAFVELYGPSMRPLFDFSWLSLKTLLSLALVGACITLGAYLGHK
T2 sequence (Q07817 whole entry): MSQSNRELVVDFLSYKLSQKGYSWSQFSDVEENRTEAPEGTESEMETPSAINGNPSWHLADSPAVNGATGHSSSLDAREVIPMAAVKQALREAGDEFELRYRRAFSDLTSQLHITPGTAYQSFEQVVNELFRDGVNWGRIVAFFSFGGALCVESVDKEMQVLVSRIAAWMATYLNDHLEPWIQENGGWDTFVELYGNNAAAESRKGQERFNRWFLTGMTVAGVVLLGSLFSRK

Row | Structure (SMILES) | Ki [1] [µM] | GI50 (Jurkat) [µM] | Ki (Bcl-2-like protein 1 [2]) [µM] | RatioGI50 [3] | GI50 (Bcl-2-like protein 1 [4]) [µM] | Ki (Bcl-2-like protein 2) [µM] | GI50 [5] [µM] | GI50 (NCI-H460) [µM]
1 | CCCc1ccc2c(c1)C(C(C#N)C(=O)OCC)C(C(=O)OCC)=C(N)O2 (configuration not stated) | 128 | 5.2 | 70.7 | <1.21 | 6.3 | 56.7 | 5.7 | 24.9
2 | CCOC(=O)C1=C(N)Oc2ccc(CC)cc2C1C(C#N)C(=O)OCC (configuration not stated) | 210 | 13 | 135 | <1 | 13 | 121 | 12 | 79.1
3 | CCOC(=O)C1=C(N)Oc2ccc(-c3ccc(C(C)(C)C)cc3)cc2C1C(C#N)C(=O)OCC (configuration not stated) | – | 0.8 | 21.7 | <1.24 | 0.99 | 20.3 | 0.99 | 0.16
4 | CCOC(=O)C1=C(N)Oc2ccc(-c3ccccc3)cc2C1C(C#N)C(=O)OCC (configuration not stated) | 112 | 3.9 | 52.9 | <1.07 | 4.1 | 41.2 | 4.2 | 15.9
5 | CCOC(=O)C1=C(N)Oc2ccc(C3CCCC3)cc2C1C(C#N)C(=O)OCC (configuration not stated) | 128 | 3.5 | 36.5 | <1.1 | 3.9 | 30.8 | 3.8 | 11
6 | COc1cccc2c1C(=O)c1c(O)c3c(c(O)c1C2=O)C[C@@](O)(C(=O)CO)C[C@@H]3O[C@H]1C[C@H](N)[C@H](O)[C@H](C)O1 [DOXORUBICIN] | – | 0.21 | – | >100 | 24 | – | 26 | –
7 | CCOC(=O)C1=C(N)Oc2ccccc2C1C(C#N)C(=O)OCC (configuration not stated) | 531 | 66 | 570 | <1.5 | 99 | 697 | 94 | 157
8 | CCOC(=O)C1=C(N)Oc2ccc(C)cc2C1C(C#N)C(=O)OCC (configuration not stated) | 309 | 29 | 191 | <1.41 | 41 | 199 | 37 | 102
9 | Nc1nc2[nH]cnc2c(=S)[nH]1 [THIOGUANINE] | – | 13 | – | >11 | 183 | – | 147 | –
10 | CC(=O)O[C@H]1C(=O)[C@@]2(C)[C@H]([C@H](OC(=O)c3ccccc3)[C@]3(O)C[C@H](OC(=O)[C@H](O)[C@@H](NC(=O)c4ccccc4)c4ccccc4)C(C)=C1C3(C)C)[C@]1(OC(C)=O)CO[C@@H]1C[C@@H]2O [PACLITAXEL] | – | < 0.01 | – | >100 | > 10 | – | > 10 | –
